Source: patent publication US20080051466A1, “Isoalpha acid based protein kinase modulation cancer treatment” (Metaproteomics, LLC, priority 2006, published 2008)
Marks after values point to notes of the source that are not given here.

Tests used:
[1] = tested on: TNFα-treated 3T3-L1 adipocytes; test: Adiponectin secretion from TNFα-treated 3T3-L1 adipocytes; type: cell-based, murine; details: for increase of adiponectin secretion in the presence of TNFα: optimal concentration; for Concentration of maximum adiponectin secretion: over four doses
Procedure: 3T3-L1 cells were seeded at an initial density of 1×10^4 cells/cm^2 in 96-well plates. For two days, the cells were allowed grow to reach confluence. Following confluence, the cells were forced to differentiate into adipocytes by the addition of differentiation medium; this medium consisted of (1) 10% FBS/DMEM (high glucose); (2) 0.5 mM methylisobutylxanthine; (3) 0.5 μM dexamethasone and (4) 10 μg/ml insulin (MDI medium). From Day 3 through Day 5, the medium was changed to post-differentiation medium consisting of 10% FBS in DMEM. […] On Day 6, the supernatant medium was sampled for adiponectin determination.
(§1) Adiponectin Assay—The adiponectin secreted into the medium was quantified using the Mouse Adiponectin Quantikine® Immunoassay kit with no modifications (R&D Systems, Minneapolis, Minn.).

LPS/3T3-L1 adipocytes [2] = test: IL-6 secretion in LPS/3T3-L1 adipocytes; type: cell-based, murine; details: 100 ng LPS/ml, D5 3T3-L1
LPS/3T3-L1 adipocytes [3] = test: Adiponectin secretion in LPS/3T3-L1 adipocytes; type: cell-based, murine; details: 100 ng/ml LPS; for induction of adiponectin secretion: any of the doses tested
[4] = tested on: insulin-resistant 3T3-L1 adipocytes; test: Adiponectin secretion from insulin-resistant 3T3-L1 adipocytes; type: cell-based, murine; details: 50.0 μg/ml
Procedure: 3T3-L1 cells were seeded at an initial density of 1×10^4 cells/cm^2 in 96-well plates. For two days, the cells were allowed grow to reach confluence. Following confluence, the cells were forced to differentiate into adipocytes by the addition of differentiation medium; this medium consisted of (1) 10% FBS/DMEM (high glucose); (2) 0.5 mM methylisobutylxanthine; (3) 0.5 μM dexamethasone and (4) 10 μg/ml insulin (MDI medium). From Day 3 through Day 5, the medium was changed to post-differentiation medium consisting of 10 μg/ml insulin in 10% FBS/DMEM.
Briefly, on Day 6, cells were maintained in serum-free media containing 0.5% bovine serum albumin (BSA) for three hours and then treated with 1 μg insulin/ml plus solvent or insulin plus test material. […] Twenty-four hours later, the supernatant medium was sampled for adiponectin determination.
as §1
Substituting {relative adiponectin secretion/[concentration])} for the independent variable v/[S] and {relative adiponectin secretion} for the dependant variable {v}, produced a relationship of the form y=mx+b. […]

NF-kBp65 = NF-kBp65 nuclear translocation in TNFα-treated 3T3-L1 adipocytes; type: cell-based, murine; details: 2.5 and 5.0 μg/ml, three or 24 hours following TNFα
Procedure: Cell Culture and Treatment—Following differentiation 3T3-L1 adipocytes were maintained in post-differentiation medium for an additional 40 days. […] Hops derivatives and the positive control pioglitazone were tested at concentrations of 2.5, and 5.0 μg/ml. Test materials were added 1 hour prior to and nuclear extracts were prepared three and 24 hours following treatment with TNFα.
ELISA-3T3-L1 adipocytes were maintained in growth media for 40 days following differentiation. Nuclear NF-kBp65 was determined using the TransAM™ NF-kB kit from Active Motif (Carlsbad, Calif.) was used with no modifications. Jurkat nuclear extracts provided in the kit were derived from cells cultured in medium supplemented with 50 ng/ml TPA (phorbol, 12-myristate, 13 acetate) and 0.5 μM calcium ionophore A23187 for two hours at 37° C. immediately prior to harvesting.
Protein assay—Nuclear protein was quantified using the Active Motif Fluorescent Protein Quantification Kit.

[5] = tested on: A549 pulmonary epithelial cells; test: PGE2 biosynthesis in A549 cells stimulated by mite dust allergen; type: cell-based, human; details: 10 μg/ml, mite dust allergen 1000 ng/ml, 18 h
Procedure: The filtrate was termed mite dust allergen and used to test for induction of PGE2 biosynthesis in A549 pulmonary epithelial cells.
Mite allergen was added to the culture medium to achieve a final concentration of 1000 ng/ml. Eighteen hours later, the media were sampled for PGE2 determination.

COc1ccc2c(c1)c(CC(=O)O)c(C)n2C(=O)c1ccc(Cl)cc1 [Indomethacin, indomethacin]
increase of adiponectin secretion in the presence of TNFα ([1]; 10 ng TNFα/ml): 94% | Concentration of maximum adiponectin secretion ([1]; 10 ng TNFα/ml): 5.0 µg/mL | Concentration of maximum adiponectin secretion ([1]; 10 ng TNFα/ml, listed as indomethacin): 2.5 µg/mL | Maximum inhibition of IL-6 secretion, % Inhibition (LPS/3T3-L1 adipocytes [2]; 5.00 μg/ml): 53* % | maximum adiponectin stimulation (LPS/3T3-L1 adipocytes [3]; […]): 9%

CC(C)CCC1=C(O)C(C(=O)C(C)C)=C(O)C(CCC(C)C)(CCC(C)C)C1=O [Hexahydrocolupulone (HHCL)]
Adiponectin/IL-6 [4]: 0.60#

CC(=O)Oc1ccccc1C(=O)O [Aspirin, aspirin]
induction of adiponectin secretion (LPS/3T3-L1 adipocytes [3]): failed to induce adiponectin secretion

O=C(O)c1ccccc1O [salicylic acid]
IL-6 Index at maximum inhibition (LPS/3T3-L1 adipocytes [2]; 50.0 μg/ml (dose of maximum inhibition)): 0.52* | induction of adiponectin secretion (LPS/3T3-L1 adipocytes [3]): failed to induce adiponectin secretion

CCc1ccc(CCOc2ccc(CC3SC(=O)NC3=O)cc2)nc1 (stereo not drawn) [Pioglitazone, pioglitazone]
increase of adiponectin secretion in the presence of TNFα ([1]; 10 ng TNFα/ml): 80% | Adiponectin Index (relative maximum adiponectin secretion) ([1]; 10 ng TNFα/ml, [Adiponectin]Test/[Adiponectin]TNFα control): 1.47 | Adiponectin Index Observed ([1]; 1.0 μg/ml, TNFα/3T3-L1, curcumin/XN combinations, indexed to TNFα control): 1.80 | IL-6 Index at maximum inhibition (LPS/3T3-L1 adipocytes [2]; 5.00 μg/ml (dose of maximum inhibition)): 0.37* | inhibition of the amount of nuclear NF-kBp65 (NF-kBp65): did not inhibit

Beta acids
Percent PGE2 Inhibition [5]: 83%
